Measurements: patent US8440688B2, “Compounds, formulations and methods for reducing skin wrinkles, creasing and sagging” (Galderma Laboratories Inc., priority 2007, dated 2013)

System: severe wrinkling on their face
Test: Topical application of COL-118 to facial wrinkles (Example 18)
Format: in vivo, human
Details: middle-aged person, topical 0.2% COL-118
Experimental: A middle-aged person has severe wrinkling on their face. They apply 0.2% COL-118 (an α2 adrenergic receptor agonist supplied by CollaGenex Pharmaceuticals, Inc., Newtown, Pa.). Wrinkling is noticeably diminished within 5 minutes by casual observation. After about 10 minutes, nearly all the wrinkles are gone. The effect lasts at least 8 hr.

## Brc1c(NC2=NCCN2)ccc2nccnc12 [COL-118]
  Duration of the wrinkle-reducing effect: at least 8 hr
  Time after which nearly all the wrinkles are gone: about 10 minutes
  Time until wrinkling is noticeably diminished (casual observation): ≤ 5 min
